Each structure is given as a SMILES string. pIC50: −log10 of the molar value. “And” between values parts separate entries of the source, which are not always exact repeats. Identical values can stand only once.

One experiment has as its target T1, BLK (Homo sapiens, UniProt P51451).
T1 construct: purchased BPS 40401
The experiment is described as follows: standard kinase inhibition assay performed by Nanosyn. It counts as biochemical. The conditions noted are these: [Enzyme] 0.4 nM, [ATP] 20 μM, inc time 1 hr. How it is done:
(§1) The following kinases were assayed according the table 4 below:
(§2) Compounds were tested in singlicates using 12 pt (3×-dilutions) dose response format with top concentration of 10 mM or 1 mM.

The next experiment has as its target T2, BMX (Homo sapiens, UniProt P51813).
T2 construct: purchased BPS 40402
T2 sequence (P51813 1-675): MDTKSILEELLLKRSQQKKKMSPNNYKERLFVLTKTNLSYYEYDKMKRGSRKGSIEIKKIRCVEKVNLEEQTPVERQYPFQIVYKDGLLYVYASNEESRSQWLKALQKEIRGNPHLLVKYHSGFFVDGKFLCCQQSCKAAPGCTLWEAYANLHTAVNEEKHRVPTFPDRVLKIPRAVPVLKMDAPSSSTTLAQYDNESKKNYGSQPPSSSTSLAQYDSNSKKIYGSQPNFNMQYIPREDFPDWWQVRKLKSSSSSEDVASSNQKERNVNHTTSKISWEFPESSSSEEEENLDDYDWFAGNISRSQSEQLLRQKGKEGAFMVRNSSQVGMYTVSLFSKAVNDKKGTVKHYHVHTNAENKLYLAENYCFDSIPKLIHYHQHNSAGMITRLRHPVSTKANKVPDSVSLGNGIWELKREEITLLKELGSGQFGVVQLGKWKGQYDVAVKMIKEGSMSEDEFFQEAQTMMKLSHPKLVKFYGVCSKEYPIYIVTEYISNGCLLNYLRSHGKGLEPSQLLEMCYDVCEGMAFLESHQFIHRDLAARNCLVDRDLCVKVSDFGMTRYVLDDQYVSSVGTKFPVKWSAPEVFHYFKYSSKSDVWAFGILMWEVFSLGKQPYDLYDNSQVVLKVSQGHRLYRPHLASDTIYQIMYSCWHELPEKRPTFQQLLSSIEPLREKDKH
The experiment is described as above. It counts as biochemical. The conditions noted are these: [Enzyme] 1.82 nM, [ATP] 75 μM, inc time 1 hr. The method, then: as §1, §2

Experiment [1] concerns the target T3, BTK (Homo sapiens, UniProt Q06187). Described as above. The conditions noted are these: [Enzyme] 0.95 nM, [ATP] 20 μM, inc time 1 hr. It counts as biochemical. How it is done:
as §1, §2

The target of another experiment is T4, ITK (Homo sapiens, UniProt Q08881).
T4 construct: endogenous in cells; host or cells: Jurkat cell lysate
T4 sequence (Q08881 1-620): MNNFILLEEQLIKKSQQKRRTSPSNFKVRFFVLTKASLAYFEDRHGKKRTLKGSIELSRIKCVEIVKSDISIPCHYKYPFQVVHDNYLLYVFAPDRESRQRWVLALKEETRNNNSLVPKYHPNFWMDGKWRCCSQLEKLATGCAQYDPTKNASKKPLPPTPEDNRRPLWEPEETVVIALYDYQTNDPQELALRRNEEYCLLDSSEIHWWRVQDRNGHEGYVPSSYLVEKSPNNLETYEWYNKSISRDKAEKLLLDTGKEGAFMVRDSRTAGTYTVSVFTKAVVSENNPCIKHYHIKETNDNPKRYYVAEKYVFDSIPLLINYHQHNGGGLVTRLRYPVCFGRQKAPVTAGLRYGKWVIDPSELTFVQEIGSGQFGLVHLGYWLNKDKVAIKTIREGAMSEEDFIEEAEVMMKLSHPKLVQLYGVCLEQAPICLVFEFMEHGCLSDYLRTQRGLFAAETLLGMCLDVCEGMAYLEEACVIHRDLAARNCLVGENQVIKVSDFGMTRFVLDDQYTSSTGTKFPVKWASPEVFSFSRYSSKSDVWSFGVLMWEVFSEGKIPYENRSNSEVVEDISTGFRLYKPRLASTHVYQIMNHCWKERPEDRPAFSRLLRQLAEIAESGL
The experiment is described as above. It counts as biochemical. The conditions noted are these: [Enzyme] 1 nM, [ATP] 50 μM, inc time 3 hr. The method, then:
as §1, §2

In the next experiment the target is T5, JAK3 (Homo sapiens, UniProt P52333).
T5 construct: purchased INVITROGEN PV3855
T5 sequence (P52333 781-1124 limits assumed): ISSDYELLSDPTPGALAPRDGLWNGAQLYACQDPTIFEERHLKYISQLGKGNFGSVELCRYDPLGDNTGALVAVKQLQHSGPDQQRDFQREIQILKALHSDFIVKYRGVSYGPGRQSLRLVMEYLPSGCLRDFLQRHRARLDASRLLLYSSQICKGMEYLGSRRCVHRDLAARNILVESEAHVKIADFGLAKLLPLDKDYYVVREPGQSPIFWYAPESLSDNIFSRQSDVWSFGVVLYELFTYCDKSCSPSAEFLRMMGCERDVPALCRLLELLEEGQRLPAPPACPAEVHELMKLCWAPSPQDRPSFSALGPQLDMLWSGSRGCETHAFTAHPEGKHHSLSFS
The experiment is described as above. It counts as biochemical. The conditions noted are these: [Enzyme] 2 nM, [ATP] 2 μM, inc time 3 hr. How it is done: as §1, §2

In the next experiment the target is T6, LCK (Homo sapiens, UniProt P06239).
T6 construct: purchased INVITROGEN P3043
T6 sequence (P06239 whole entry): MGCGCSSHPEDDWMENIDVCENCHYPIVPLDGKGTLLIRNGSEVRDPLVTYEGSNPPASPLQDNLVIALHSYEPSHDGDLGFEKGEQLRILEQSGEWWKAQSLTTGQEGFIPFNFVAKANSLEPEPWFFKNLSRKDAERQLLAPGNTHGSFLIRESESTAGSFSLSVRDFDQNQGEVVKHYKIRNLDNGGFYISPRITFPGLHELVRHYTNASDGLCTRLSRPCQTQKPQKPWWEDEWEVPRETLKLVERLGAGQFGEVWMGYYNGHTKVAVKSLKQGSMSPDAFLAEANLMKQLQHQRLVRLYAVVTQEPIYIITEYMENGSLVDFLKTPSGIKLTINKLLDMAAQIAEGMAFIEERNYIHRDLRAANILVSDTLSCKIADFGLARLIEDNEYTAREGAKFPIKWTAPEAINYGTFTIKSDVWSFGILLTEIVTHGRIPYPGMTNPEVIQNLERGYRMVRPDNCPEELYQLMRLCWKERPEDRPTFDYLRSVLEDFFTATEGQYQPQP
The experiment is described as above. Type of experiment: biochemical. The conditions noted are these: [Enzyme] 0.4 nM, [ATP] 50 μM, inc time 1 hr. How it is done: as §1, §2

Another experiment addresses T7, SRC (Homo sapiens, UniProt P12931).
T7 construct: purchased INVITROGEN P3044
Described as above. Type of experiment: biochemical. Particulars: [Enzyme] 3 nM, [ATP] 25 μM, inc time 1 hr. How it is done: as §1, §2

The target in a further experiment is T8, TEC (Homo sapiens, UniProt P42680).
T8 construct: purchased Millipore 14-801
T8 sequence (P42680 1-631): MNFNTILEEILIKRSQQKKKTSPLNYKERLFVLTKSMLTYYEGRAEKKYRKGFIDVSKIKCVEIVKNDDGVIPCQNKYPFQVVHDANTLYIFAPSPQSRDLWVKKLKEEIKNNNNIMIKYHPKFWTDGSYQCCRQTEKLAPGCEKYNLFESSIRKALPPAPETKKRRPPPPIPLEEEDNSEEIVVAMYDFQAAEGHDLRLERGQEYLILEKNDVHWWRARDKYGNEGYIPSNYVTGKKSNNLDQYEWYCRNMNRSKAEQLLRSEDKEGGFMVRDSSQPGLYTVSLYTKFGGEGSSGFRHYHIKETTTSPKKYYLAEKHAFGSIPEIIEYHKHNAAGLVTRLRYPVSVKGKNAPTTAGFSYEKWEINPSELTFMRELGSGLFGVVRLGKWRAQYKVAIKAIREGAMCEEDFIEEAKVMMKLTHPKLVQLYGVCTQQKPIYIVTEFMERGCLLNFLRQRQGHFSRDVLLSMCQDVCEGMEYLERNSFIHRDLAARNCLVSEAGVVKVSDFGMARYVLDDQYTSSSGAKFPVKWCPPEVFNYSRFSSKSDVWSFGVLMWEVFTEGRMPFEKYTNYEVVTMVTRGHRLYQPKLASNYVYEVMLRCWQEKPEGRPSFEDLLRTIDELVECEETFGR
The experiment is described as above. Type of experiment: biochemical. Particulars: [Enzyme] 4.6 nM, [ATP] 12 μM, inc time 1 hr. The method, then:
as §1, §2

Experiment [2] addresses T3, BTK. The experiment can be described thus: Comparison of biotinylated probes, streptavidin coated plate BTK occupancy assay. It counts as binding. Details: Positive Control lysates from BTK expressing cell line (DOHH2); endogenous in cells; host or cells: DOHH2 cell lysate. Particulars: DOHH2 lysate, high and low probe concentrations. The method, then: Selected biotinylated probes were tested for use in target occupancy assays using either the anti-protein antibody coated plate or streptavidin coated plate assay formats. The following probes were tested:
Stock solutions (5 mM and 10 mM) of the probes were prepared as follows. […] For the assays 50× probe was prepared fresh the day of the assay: 1 μl of 5 mM probe to […] PBS.
1) Dilute lysate to desired concentration with PBS to final volume of 500 μl
2) Add Biotinylated probe (final concentration 2.5 μM) to lysate, 37 C for 1 hr
3) Block streptavidin plate w/ 1% BSA, RT, 1 hr, wash w/ PBST 3×
4) Stop reaction by transfer samples onto ice for 10 min, then bring back to RT
5) Add 100 ul treated lysate (in triplicate) to streptavidin plate, RT, 2 hr w/ rocking
6) Wash with 200 μl PBST, 5×
7) Add 100 μl 2nd Ab-HRP, incubate at RT for 1 hr
8) Wash with 200 μl PBST, 3×
9) Add 100 μl TMB, incubate at RT for 10 min
10) Add 50 μl stop solution

T3 sequence (Q06187 whole entry): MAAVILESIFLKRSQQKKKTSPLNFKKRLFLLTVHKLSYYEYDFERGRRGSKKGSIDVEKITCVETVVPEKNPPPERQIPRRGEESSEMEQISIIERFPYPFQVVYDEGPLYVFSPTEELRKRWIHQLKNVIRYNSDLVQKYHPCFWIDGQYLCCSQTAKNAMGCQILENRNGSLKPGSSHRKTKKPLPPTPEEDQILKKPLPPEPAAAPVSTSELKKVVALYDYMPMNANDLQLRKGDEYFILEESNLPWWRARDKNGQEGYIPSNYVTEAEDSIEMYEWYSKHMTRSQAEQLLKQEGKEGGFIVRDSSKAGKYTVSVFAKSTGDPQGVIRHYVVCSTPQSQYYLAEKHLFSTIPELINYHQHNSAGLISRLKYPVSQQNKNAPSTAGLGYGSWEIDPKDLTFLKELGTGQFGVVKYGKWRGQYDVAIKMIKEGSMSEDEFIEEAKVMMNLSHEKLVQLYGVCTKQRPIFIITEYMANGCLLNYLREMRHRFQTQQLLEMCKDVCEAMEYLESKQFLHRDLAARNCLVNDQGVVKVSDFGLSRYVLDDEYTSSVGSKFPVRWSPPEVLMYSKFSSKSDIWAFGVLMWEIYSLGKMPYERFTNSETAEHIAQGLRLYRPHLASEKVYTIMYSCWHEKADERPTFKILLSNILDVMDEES
T7 sequence (P12931 whole entry): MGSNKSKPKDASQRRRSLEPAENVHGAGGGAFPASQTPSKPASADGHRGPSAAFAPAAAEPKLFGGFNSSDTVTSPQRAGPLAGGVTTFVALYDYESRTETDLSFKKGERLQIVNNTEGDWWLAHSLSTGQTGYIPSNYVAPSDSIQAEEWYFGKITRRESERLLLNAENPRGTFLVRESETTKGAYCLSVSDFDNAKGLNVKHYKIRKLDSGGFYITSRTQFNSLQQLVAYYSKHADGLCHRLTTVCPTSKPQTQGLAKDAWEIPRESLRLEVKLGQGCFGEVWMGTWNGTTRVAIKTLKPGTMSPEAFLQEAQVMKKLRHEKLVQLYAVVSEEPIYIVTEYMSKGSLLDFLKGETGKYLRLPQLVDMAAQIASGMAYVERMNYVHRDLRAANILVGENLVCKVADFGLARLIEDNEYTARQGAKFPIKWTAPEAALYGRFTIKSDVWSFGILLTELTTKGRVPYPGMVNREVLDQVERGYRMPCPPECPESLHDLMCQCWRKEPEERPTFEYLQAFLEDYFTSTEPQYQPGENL
T1 sequence (P51451 whole entry): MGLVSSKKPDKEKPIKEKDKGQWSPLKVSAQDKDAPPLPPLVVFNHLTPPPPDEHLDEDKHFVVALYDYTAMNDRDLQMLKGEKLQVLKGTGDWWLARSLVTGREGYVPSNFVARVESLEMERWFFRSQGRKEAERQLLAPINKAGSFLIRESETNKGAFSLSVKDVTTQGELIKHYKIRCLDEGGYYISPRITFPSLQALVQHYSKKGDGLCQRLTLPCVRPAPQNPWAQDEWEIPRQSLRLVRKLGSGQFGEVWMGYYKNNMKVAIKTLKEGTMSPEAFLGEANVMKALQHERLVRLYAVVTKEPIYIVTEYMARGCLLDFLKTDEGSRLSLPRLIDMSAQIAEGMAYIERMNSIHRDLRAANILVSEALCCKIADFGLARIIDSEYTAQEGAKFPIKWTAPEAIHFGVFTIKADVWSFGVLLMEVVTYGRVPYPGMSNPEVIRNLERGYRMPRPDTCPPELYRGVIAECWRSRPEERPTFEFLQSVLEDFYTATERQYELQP

Regarding `CN(C/C=C/C(=O)N1CCC[C@@H](n2nc(-c3ccc(Oc4ccccc4)cc3)c3c(N)ncnc32)C1)CCCCNC(=O)CCCC(=O)NCCCOCCOCCOCCCNC(=O)CCCC[C@@H]1SC[C@@H]2NC(=O)N[C@@H]21` [Compound I-5], the pIC50 (in general, the IC50 on a negative log10 scale, so that one unit is a factor of ten) was 8.37 and 8.44 against BLK; 8.25 and 8.35 against BMX; 8.99 and 9.12 against BTK [1]; 6.70 and 6.73 at ITK; 5.31 and 5.27 at JAK3; 8.16 and 8.22 against LCK. Further, the pIC50 is 7.44 and 7.47 against SRC; 8.64 and 8.77 against TEC. For the same molecule, the “signal for binding to BTK out of the probes tested” value at BTK [2] is reported as “highest signal”.

The values are drawn from patent publication US20150260723A1, “COMPANION DIAGNOSTICS FOR TEC FAMILY KINASE INHIBITOR THERAPY” (PHARMACYCLICS, INC., priority 2012, published 2015).
